Data on 90 molecules can be found in a melting point compilation (Tetko et al.; mined from patent text by program, amines drawn as free bases though some values may be those of a salt).

Consider `CC1(c2ccc(N)cc2)C(=O)c2c(Cl)cc(Cl)cc2N(Cc2ccccc2)C1=O` (stereo not given), for which the melting point was in the range of 209 to 210 °C.

Take `O=C1c2ccccc2C(=O)C1(O)c1cc(F)ccc1O`: the melting point lay in the range of 189 to 193 °C. The same measure for `Nc1nc(S(N)(=O)=O)c2[nH]cnc2n1`: above 250 °C; for `CC(O)=C(C(=O)OCc1ccc([N+](=O)[O-])cc1)N1C(=O)C(NC(=O)COc2ccccc2)C1SS(=O)(=O)c1ccc(C)cc1` (stereo not given): 159 to 160 °C. Under `CN(O)C(=O)c1ccccc1` stands below 20 °C; under `CCCCC(CC)COC(=O)C(C#N)=C1C=C(C)N(CCCC)C(C)=C1` (stereo not given), 69 to 70 °C; under `CCc1nc2c(N)nc3ccccc3c2n1CC1(O)CCS(=O)(=O)CC1`, above 250 °C. The molecule `CC(=O)c1cccc(NC(=S)N(C)N)c1` displayed a melting point of 125 to 127 °C. The same measure for `O=C(c1ccccc1)c1ccc(OCCCCCCBr)cc1`: 47 to 49 °C. Under `COC(=O)CCCCSCCCCCCCCCCCOS(=O)(=O)c1ccc(C)cc1` stands 54 °C; under `c1ccc(N=C2CCCCN2)c(CN2CCOCC2)c1`, 108 to 110 °C; under `N#Cc1c(N2CCCCC2)cc(-c2cccs2)c2c1-c1ccccc1C2`, 152 to 154 °C.

With `COCC#CC1=CC(C)(C)Oc2c(OC)cc(Cc3cnc(N)nc3N)cc21`, the melting point lay within 236 to 237 °C. The same measure for `Nc1cc(C(=O)O)cc(SCc2ccccn2)c1-c1ccccc1`: 210 to 211 °C; for `Fc1ncnc(Oc2ccccc2)c1F`: 65 to 66 °C; for `Cc1cc(C(=O)N[C@@H](CC(C)C)C(=O)N[C@@H](C(C)C)[C@@H](O)c2c(-c3ccccc3)c2=O)n(C)n1`: 115 to 118 °C. The same measure for `CN1CCN(c2nc(NCc3ccco3)nc(Nc3ccc(O)cc3)n2)CC1`: 116 to 118 °C. `CC(=O)Nc1cccc(-c2ccnc3c(Cc4ccccc4)cnn23)c1` registered a melting point of 205 to 207 °C. For `COc1ccc(-n2c(=O)c3c(c4cccnc42)OCC3)cc1`, the melting point was in the range of 282 to 284 °C. Under `O=C1CCC(N2Cc3c(OCc4ccc(CN5CCCC5C(F)(F)F)cc4)cccc3C2=O)C(=O)N1` (stereo not given) stands 178 to 180 °C; under `CC(C)n1cc(-c2c(-c3ccccc3F)nn3ccncc23)ccc1=O`, 150 to 151 °C. `O=C(NO)C(CN1C(=O)CNC1=O)CS(=O)(=O)c1ccc(-c2ccc(Cl)cc2)cc1` (stereo not given) had a melting point of 150 to 156 °C. The molecule `CCCNC(=O)CP(=O)(O)O` came in with a melting point of 155 to 160 °C. Under `COC(=O)c1cc(C(=O)N2CCC(CO)CC2)c2cc(Cc3ccc(F)cc3)cnc2c1O` stands 161 to 162 °C; under `CCc1nc2cc(F)ccc2n1C1CC2CCC(C1)N2CCCSc1ccc(F)cc1` (stereo not given), 127 to 128 °C; under `COc1ccc(COCc2nnc3n2-c2ccc(Cl)cc2C(c2ccccc2)=NC3)cc1`, 157 to 159 °C.

In turn, `O=CN1CCN(c2nn(-c3ccccc3)c3ccccc23)CC1` registered a melting point of 130 to 132 °C.

As to `COC(=O)CCCCCCC1=C(OC)C(=O)CC1=O`, the melting point came out at 103 °C. Molecule `CC(=O)c1ccc2c(c1)SC(C)(C)S2` displayed a melting point of 75 to 76 °C. `Cc1ccc(NC(=O)c2c(Cl)cccc2Cl)c2nccc(N3CCN(C)C3=O)c12` gave a melting point of 262 to 264 °C. Under `CC(=O)N1CCN(c2cc3c(c(N)c2F)c(=O)c(C(=O)O)cn3C2CC2)CC1C` (stereo not given) stands 269 to 271 °C; under `CNC(=O)NC1(C)CCCc2ccccc21` (stereo not given), 183 to 186 °C; under `O=C(c1ccc(Cl)cc1)N1CCc2cc(S(=O)(=O)N3CCN(c4cccc(Cl)c4)CC3)ccc21`, 191 to 192 °C. The molecule `COC(=O)C[C@H](NC(c1ccccc1)(c1ccccc1)c1ccccc1)C(=O)C(=[N+]=[N-])C(=O)N(C)OC` displayed a melting point of 130 to 131 °C. `Cn1c([N+](=O)[O-])cnc1C=NN1CCN(CCN2CCOCC2)C1=O` gave a melting point of 173 °C. The same measure for `COc1ccc(N2CCOCC2)c2sc(NC(=O)N(C)C3CCC(C(F)(F)F)CC3)nc12` (stereo not given): 157 to 167 °C; for `COCOCC#Cc1nc(-c2ccc(=O)n(C(C)C)n2)c(-c2ccccc2)nc1N`: 133 to 135 °C; for `CC(C)N1C(=O)C(N=[N+]=[N-])N=C(c2ccccc2)c2ccccc21` (stereo not given): 178 to 179 °C. In turn, `Cc1c(C(=O)C2CSC(c3cccnc3)N2)c2ccccc2n1C(=O)N(C)C` (stereo not given) yielded a melting point of 130 to 132 °C.

For `CCOC(=O)c1cn(C2CC2)c2c(F)c(NCC(O)COC(=O)c3ccccc3)c(F)cc2c1=O` (stereo not given), the melting point lay within 134 to 136 °C. The same measure for `Nc1noc(C(F)(F)F)c1-c1ccccc1`: 91.5 to 92 °C. `COC(=O)CCc1cnoc1-c1ccc(Cl)c(F)c1` had a melting point of 53 to 54 °C. The molecule `CCN(c1ccc(Cl)cc1C(O)c1ccccc1Cl)S(=O)(=O)c1ccc(OC)c(OC)c1` (stereo not given) registered a melting point of 154 °C. Under `CCCCCCCCNCC(O)COc1ccc(SC)cc1` (stereo not given) stands 79.5 to 80.5 °C; under `CCCCCCSc1ccc(SCCCCCC)c(C(=O)O)n1`, 40 to 42 °C; under `O=C(Nc1nc(OCc2ccc(F)cc2)ncc1F)c1snc(Cl)c1Cl`, 87 to 90 °C. Turning to `Cc1c(CO)cccc1NC(=O)CC12CC3CC(CC(C3)C1)C2`, the melting point lay in the range of 205 to 206 °C. Under `COc1cccc(CNC(=O)c2[nH]c3ccc(Cl)cc3c2S(=O)(=O)c2nccs2)c1` stands 205 to 209 °C; under `N#CC(c1ccnc(OCc2ccccc2)n1)c1nc2ccccc2s1` (stereo not given), 196 to 198 °C; under `O=Cc1cc(-c2cccs2)ccc1O`, 102 to 103 °C. Under `CN(CC(=O)Nc1ccccc1)C(=O)CN1CCCC1=O` stands 145 to 146 °C. The same measure for `O=C(Nc1ccccc1N1CCc2ccccc21)c1ccco1`: 99 to 102 °C. Regarding `Cc1c(C(=O)O)nc2c(=O)[nH]c3cc(S(C)(=O)=O)ccc3n12`, the melting point came out at 228 °C. Regarding `Cc1nnc(C(F)(F)F)n1-c1ccccc1`, the melting point turned out to be 118 °C. In turn, `O=C(COC1CCCCCCCCCCC1)C1=C(O)CSC1=O` came in with a melting point of 93 to 95 °C. The molecule `O=C(O)Cc1c(C(=O)c2cccc(F)c2)[nH]c2cc(Cl)ccc12` returned a melting point of 278 to 281 °C. The same measure for `NC1N=C(c2ccccc2)c2ccccc2NC1=O` (stereo not given): 196 to 197 °C; for `N#Cc1cc(Cl)ccc1Oc1cccc(O)c1`: 118 to 120 °C; for `CC(=O)n1ccc2c1CCn1ccnc1C2=C1CCN(C)CC1`: 198 °C. The same measure for `O=C1CCC(c2ccc(CCCCN3CCN(c4ccc(F)cc4)CC3)cc2)N1` (stereo not given): 136 to 137 °C; for `CC(=O)OCCn1c(=O)c(C#N)c(N2CCN(C(=O)c3cccs3)CC2)c2cccnc21`: 189 °C; for `COCCN1Cc2cc(C(=O)O)ccc2N(C)C(CC(=O)O)C1=O` (stereo not given): 228 to 230 °C.

Consider `Cc1nn(-c2c(Cl)cc(C(F)(F)F)cc2Cl)nc1C#N`, for which the melting point was 53 °C. Under `COc1ccc(CONS(=O)(=O)c2ccc(C)cc2)cc1` stands 109 to 111 °C; under `Cc1ccc(C2CCN(C(=O)CCC(=O)c3ccc4c(c3)CCNCC4)CC2)cc1`, 115 to 116 °C.

`COC(=O)c1csc(-c2snnc2-c2ccccc2)n1` displayed a melting point of 124 °C. Molecule `CC(C)C(C)(C(=O)O)N1C(=O)c2ccccc2C1=O` (stereo not given) showed a melting point of 151 to 152 °C. As to `CC1(C)N=C(c2ccc(N)cc2)CC1c1ccncc1` (stereo not given), the melting point is 175 to 178 °C. On to `Cc1oc(-c2ccccc2)nc1COc1ccc(CC2SC(=O)NC2=O)cn1` (stereo not given), for which the melting point was in the range of 151 to 152 °C. The same measure for `FC(F)(F)c1ccc(CC[C@H]2CN(Cc3ccccc3)CCN2Cc2ccccc2)cc1`: 71 to 75 °C; for `c1ccc2c(c1)C[C@H]1CSC(=Nc3cc[nH]n3)N1C2`: 161 °C; for `O=C(O)c1cccc(C(CCc2ccc(Cl)cc2)CC(=O)c2ccccc2)c1` (stereo not given): 93 to 95 °C. `O=C1c2ccccc2C(=O)N1CC(O)COc1cccc2ccccc12` (stereo not given): the melting point lay in the range of 152 to 154 °C. In turn, `COc1ccc(Cl)cc1C(=O)NCCc1ccc(-c2ccc(OC(C)(C)C(=O)O)cc2)cc1` registered a melting point of 145 °C. The same measure for `O=C1CCC(=O)N1CC(=O)N1c2ccccc2N(Cc2ccccc2)C(=O)[C@H]2CCC[C@H]21` (relative stereo): 212 to 213 °C; for `Nc1nc(N)nc(C2CCN(C(=O)c3ccccc3)CC2)n1`: 246 to 248 °C; for `CCOC(=O)c1cn2c3c(ccc(Cl)c3c1=O)OCC2C` (stereo not given): 205 to 206 °C. `O=C1CCSC(c2ccccc2Cl)c2cc([N+](=O)[O-])ccc2N1` (stereo not given) registered a melting point of 285 °C.

For the molecule `O=C(c1cc(-c2ccccc2)c(=O)n2c1-c1sccc1C2)N1CCOCC1`, the melting point lay in the range of 225 to 227 °C.

`CSc1ccccc1-c1[nH]c2cccc3c2c1CCNC3=O` returned a melting point of 271 to 272 °C.

`CN1C(=S)N(c2ccc(C#N)c(C(F)(F)F)c2)C(=N)C1(C)C` gave a melting point of 173 to 174 °C.

In turn, `Cc1nn(C)c2ccc(C(=O)O)c(C(=O)O)c12` showed a melting point of 228 to 232 °C. Molecule `CC(=O)Nc1ccc(S(=O)(=O)Cc2cccc(OC(C)=O)c2)c2cccnc12` showed a melting point of 179 to 182 °C.

As for `CCOc1ncc(C(C)=O)cc1C(=O)Nc1c(C(N)=O)nn(C2CN(C(=O)OC(C)(C)C)C2)c1CC`, the melting point fell in the range of 220 to 223 °C. In turn, `CS(=O)(=O)c1ccc(C2=C(c3ccccc3)C(=O)C3(CCCC3)O2)cc1` had a melting point of 184 to 185 °C. `O=C(O)CNC(=O)[C@@H](CO)NC(=O)CNC(=O)CSC(=O)c1ccccc1` showed a melting point of 149 °C.

`COc1ccc2ccccc2c1CC#N`: the melting point is 95.2 to 95.6 °C. `CC(=O)Nc1c(C(=O)c2ccc(O)c(O)c2)[nH]c2cc(Cl)ccc12` had a melting point of 193 to 200 °C.

`CC(=O)CC(=O)Nc1nnc(C(C)(C)C)s1` displayed a melting point of 166 to 168 °C. Under `Cn1c(S(C)(=O)=O)nc2ccccc21` stands 131 to 132 °C.

For orientation: melting point means the temperature, or range, at which the solid turns liquid.
